Assay results from ChEMBL document CHEMBL1909046, “DrugMatrix in vitro pharmacology data”.

Target: Matrix metalloproteinase-9 (Homo sapiens, UniProt P14780);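 also: inhibition of isolated MMP-9 enzyme activity toward a synthetic peptide substrate, from the DrugMatrix protease screening panel; in other assays of this panel Not Active means under 50% inhibition at 10 µM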
Type: cell-based
Conditions: not given

Matrix metalloproteinase-9, sequence (P14780 whole entry): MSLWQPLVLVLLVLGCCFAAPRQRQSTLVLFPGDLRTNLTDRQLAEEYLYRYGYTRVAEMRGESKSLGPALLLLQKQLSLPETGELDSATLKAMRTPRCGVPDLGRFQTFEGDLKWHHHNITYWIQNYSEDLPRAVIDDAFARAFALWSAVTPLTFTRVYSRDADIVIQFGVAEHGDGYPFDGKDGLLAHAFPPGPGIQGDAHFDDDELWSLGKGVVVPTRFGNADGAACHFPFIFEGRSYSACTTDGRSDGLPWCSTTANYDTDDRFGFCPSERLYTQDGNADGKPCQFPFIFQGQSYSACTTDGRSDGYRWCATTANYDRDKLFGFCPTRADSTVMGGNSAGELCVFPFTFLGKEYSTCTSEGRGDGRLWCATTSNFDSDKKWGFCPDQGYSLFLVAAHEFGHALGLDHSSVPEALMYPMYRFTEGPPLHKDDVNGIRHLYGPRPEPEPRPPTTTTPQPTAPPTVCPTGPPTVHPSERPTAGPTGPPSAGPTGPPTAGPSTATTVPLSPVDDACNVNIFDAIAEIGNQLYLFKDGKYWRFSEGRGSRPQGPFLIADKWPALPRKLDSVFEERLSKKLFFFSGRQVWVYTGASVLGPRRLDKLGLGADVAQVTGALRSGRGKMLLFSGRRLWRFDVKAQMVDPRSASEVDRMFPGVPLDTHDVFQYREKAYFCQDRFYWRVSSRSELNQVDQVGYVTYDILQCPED

Structure (SMILES)	IC50
O=C(O)c1cc(-c2ccc(F)cc2F)ccc1O [DIFLUNISAL]	Not Active
C[S+](C)[O-] [DIMETHYL SULFOXIDE]	Not Active
CC1=NN(c2ccccc2)C(=O)C1 [EDARAVONE]	Not Active
CC(C)C[C@H]1C(=O)N2CCC[C@H]2[C@]2(O)O[C@](NC(=O)[C@@H]3C=C4c5cccc6[nH]cc(c56)C[C@H]4N(C)C3)(C(C)C)C(=O)N12 [ERGOCRYPTINE]	Not Active
C[C@]12CC[C@@H]3c4ccc(O)cc4CC[C@H]3[C@@H]1C[C@@H](O)[C@@H]2O [ESTRIOL]	Not Active

Target: Substance-P receptor (Homo sapiens, UniProt P25103); also: in other assays of this panel Not Active means under 50% inhibition at 10 µM
Type: cell membranes, CHO, Membrane
Conditions: cho

Substance-P receptor, sequence (P25103 whole entry): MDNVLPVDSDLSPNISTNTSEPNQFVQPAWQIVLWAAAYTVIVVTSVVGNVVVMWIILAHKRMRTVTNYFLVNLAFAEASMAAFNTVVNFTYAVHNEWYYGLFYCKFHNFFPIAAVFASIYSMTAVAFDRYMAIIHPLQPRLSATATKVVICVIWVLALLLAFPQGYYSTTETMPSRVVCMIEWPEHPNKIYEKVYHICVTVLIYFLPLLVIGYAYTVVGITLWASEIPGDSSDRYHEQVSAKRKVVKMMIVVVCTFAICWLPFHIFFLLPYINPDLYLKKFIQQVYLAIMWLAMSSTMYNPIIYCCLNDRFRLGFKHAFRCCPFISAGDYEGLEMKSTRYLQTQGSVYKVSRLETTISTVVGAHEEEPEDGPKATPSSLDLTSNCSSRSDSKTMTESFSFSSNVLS

Structure (SMILES)	IC50
O=C(O)c1cc(-c2ccc(F)cc2F)ccc1O [DIFLUNISAL]	Not Active
C[S+](C)[O-] [DIMETHYL SULFOXIDE]	Not Active
CC1=NN(c2ccccc2)C(=O)C1 [EDARAVONE]	Not Active
CC(C)C[C@H]1C(=O)N2CCC[C@H]2[C@]2(O)O[C@](NC(=O)[C@@H]3C=C4c5cccc6[nH]cc(c56)C[C@H]4N(C)C3)(C(C)C)C(=O)N12 [ERGOCRYPTINE]	Not Active
C[C@]12CC[C@@H]3c4ccc(O)cc4CC[C@H]3[C@@H]1C[C@@H](O)[C@@H]2O [ESTRIOL]	Not Active

Target: Insulin receptor (Rattus norvegicus, UniProt P15127); also: in other assays of this panel Not Active means under 50% inhibition at 10 µM
Type: cell membranes, Wistar, Liver, Membrane
Conditions: not given

Insulin receptor, sequence (P15127 27-759 limits assumed): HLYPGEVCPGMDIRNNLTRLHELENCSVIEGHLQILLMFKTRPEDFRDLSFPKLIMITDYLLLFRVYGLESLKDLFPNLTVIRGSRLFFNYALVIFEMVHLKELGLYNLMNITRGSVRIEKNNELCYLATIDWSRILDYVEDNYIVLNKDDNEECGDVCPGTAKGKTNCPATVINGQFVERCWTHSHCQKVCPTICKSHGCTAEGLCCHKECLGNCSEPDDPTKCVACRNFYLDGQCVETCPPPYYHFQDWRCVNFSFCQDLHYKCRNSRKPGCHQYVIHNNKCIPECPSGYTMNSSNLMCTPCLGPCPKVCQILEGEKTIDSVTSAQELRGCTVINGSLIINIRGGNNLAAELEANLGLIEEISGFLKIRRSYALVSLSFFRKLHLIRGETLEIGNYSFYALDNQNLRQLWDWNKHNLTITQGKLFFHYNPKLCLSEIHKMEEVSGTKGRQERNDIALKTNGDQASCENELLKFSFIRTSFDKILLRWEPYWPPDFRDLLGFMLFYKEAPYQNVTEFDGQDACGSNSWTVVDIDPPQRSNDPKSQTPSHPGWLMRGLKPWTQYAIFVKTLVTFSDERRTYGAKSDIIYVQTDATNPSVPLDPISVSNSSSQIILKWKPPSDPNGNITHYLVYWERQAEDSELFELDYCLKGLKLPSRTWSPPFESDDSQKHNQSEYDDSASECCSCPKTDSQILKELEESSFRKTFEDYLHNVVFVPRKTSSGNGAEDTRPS
Insulin receptor, sequence (P15127 764-1383 limits assumed): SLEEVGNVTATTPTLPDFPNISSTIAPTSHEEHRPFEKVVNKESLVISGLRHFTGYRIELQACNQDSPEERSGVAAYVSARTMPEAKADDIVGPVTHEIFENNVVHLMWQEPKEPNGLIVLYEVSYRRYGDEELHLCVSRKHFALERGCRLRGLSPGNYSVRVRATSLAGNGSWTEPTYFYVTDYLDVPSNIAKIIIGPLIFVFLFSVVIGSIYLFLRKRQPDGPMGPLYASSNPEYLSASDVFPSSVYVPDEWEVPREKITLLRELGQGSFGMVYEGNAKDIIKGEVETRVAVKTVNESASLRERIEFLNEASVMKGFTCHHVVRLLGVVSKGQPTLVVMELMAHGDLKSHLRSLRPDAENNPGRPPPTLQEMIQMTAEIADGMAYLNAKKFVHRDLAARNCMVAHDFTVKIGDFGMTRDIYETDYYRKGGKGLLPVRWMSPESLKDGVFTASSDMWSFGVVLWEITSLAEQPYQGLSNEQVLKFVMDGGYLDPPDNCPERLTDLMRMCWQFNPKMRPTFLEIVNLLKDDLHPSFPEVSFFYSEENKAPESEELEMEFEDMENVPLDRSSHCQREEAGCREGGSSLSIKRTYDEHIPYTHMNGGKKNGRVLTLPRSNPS

Structure (SMILES)	IC50
O=C(O)c1cc(-c2ccc(F)cc2F)ccc1O [DIFLUNISAL]	Not Active
C[S+](C)[O-] [DIMETHYL SULFOXIDE]	Not Active
CC1=NN(c2ccccc2)C(=O)C1 [EDARAVONE]	Not Active
CC(C)C[C@H]1C(=O)N2CCC[C@H]2[C@]2(O)O[C@](NC(=O)[C@@H]3C=C4c5cccc6[nH]cc(c56)C[C@H]4N(C)C3)(C(C)C)C(=O)N12 [ERGOCRYPTINE]	Not Active
C[C@]12CC[C@@H]3c4ccc(O)cc4CC[C@H]3[C@@H]1C[C@@H](O)[C@@H]2O [ESTRIOL]	Not Active

Target: Protein kinase C alpha type (Homo sapiens, UniProt P17252);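 also: inhibition of PKCalpha kinase activity measured in an enzyme assay with histone as the phosphorylation substrate; in other assays of this panel Not Active means under 50% inhibition at 10 µM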
Type: cell-based
Conditions: sf9

Structure (SMILES)	IC50
O=C(O)c1cc(-c2ccc(F)cc2F)ccc1O [DIFLUNISAL]	Not Active
C[S+](C)[O-] [DIMETHYL SULFOXIDE]	Not Active
CC1=NN(c2ccccc2)C(=O)C1 [EDARAVONE]	Not Active
CC(C)C[C@H]1C(=O)N2CCC[C@H]2[C@]2(O)O[C@](NC(=O)[C@@H]3C=C4c5cccc6[nH]cc(c56)C[C@H]4N(C)C3)(C(C)C)C(=O)N12 [ERGOCRYPTINE]	Not Active
C[C@]12CC[C@@H]3c4ccc(O)cc4CC[C@H]3[C@@H]1C[C@@H](O)[C@@H]2O [ESTRIOL]	Not Active

Target: T1, Muscarinic acetylcholine receptor M2 (Homo sapiens, UniProt P08172); also: in other assays of this panel Not Active means under 50% inhibition at 10 µM
T1 sequence (P08172 whole entry): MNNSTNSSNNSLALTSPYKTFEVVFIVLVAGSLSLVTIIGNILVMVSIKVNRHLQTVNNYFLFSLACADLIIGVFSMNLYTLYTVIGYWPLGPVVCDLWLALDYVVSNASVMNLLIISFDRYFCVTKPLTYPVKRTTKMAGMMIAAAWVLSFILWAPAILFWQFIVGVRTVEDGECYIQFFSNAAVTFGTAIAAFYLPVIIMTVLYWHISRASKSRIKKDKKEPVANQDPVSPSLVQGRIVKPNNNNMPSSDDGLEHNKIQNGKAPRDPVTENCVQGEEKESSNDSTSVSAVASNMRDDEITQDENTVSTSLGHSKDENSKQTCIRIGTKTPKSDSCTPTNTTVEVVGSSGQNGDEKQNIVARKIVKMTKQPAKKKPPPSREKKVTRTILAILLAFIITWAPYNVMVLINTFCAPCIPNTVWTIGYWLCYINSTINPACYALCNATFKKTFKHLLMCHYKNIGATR
Type: cell membranes, CHO-K1, Membrane
Conditions: cho-k1

Structure (SMILES)	IC50
O=C(O)c1cc(-c2ccc(F)cc2F)ccc1O [DIFLUNISAL]	Not Active
C[S+](C)[O-] [DIMETHYL SULFOXIDE]	Not Active
CC1=NN(c2ccccc2)C(=O)C1 [EDARAVONE]	Not Active
CC(C)C[C@H]1C(=O)N2CCC[C@H]2[C@]2(O)O[C@](NC(=O)[C@@H]3C=C4c5cccc6[nH]cc(c56)C[C@H]4N(C)C3)(C(C)C)C(=O)N12 [ERGOCRYPTINE]	Not Active
C[C@]12CC[C@@H]3c4ccc(O)cc4CC[C@H]3[C@@H]1C[C@@H](O)[C@@H]2O [ESTRIOL]	Not Active

Test system: not listed separately
Test: DRUGMATRIX: Glutamate, Kainate radioligand binding (ligand: [3H] Kainic acid)
Type: cell membranes, Rattus norvegicus, Wistar, Brain, Membrane
Conditions: Not Active = under 50% inhibition at 10 µM

Structure (SMILES)	IC50	Ki
O=C(O)c1cc(-c2ccc(F)cc2F)ccc1O [DIFLUNISAL]	Not Active	Not Active
C[S+](C)[O-] [DIMETHYL SULFOXIDE]	Not Active	Not Active
CC1=NN(c2ccccc2)C(=O)C1 [EDARAVONE]	Not Active	Not Active
CC(C)C[C@H]1C(=O)N2CCC[C@H]2[C@]2(O)O[C@](NC(=O)[C@@H]3C=C4c5cccc6[nH]cc(c56)C[C@H]4N(C)C3)(C(C)C)C(=O)N12 [ERGOCRYPTINE]	Not Active	Not Active
C[C@]12CC[C@@H]3c4ccc(O)cc4CC[C@H]3[C@@H]1C[C@@H](O)[C@@H]2O [ESTRIOL]	Not Active	Not Active

Target: T2, 3-hydroxy-3-methylglutaryl-coenzyme A reductase (Homo sapiens, UniProt P04035)
T2 sequence (P04035 whole entry): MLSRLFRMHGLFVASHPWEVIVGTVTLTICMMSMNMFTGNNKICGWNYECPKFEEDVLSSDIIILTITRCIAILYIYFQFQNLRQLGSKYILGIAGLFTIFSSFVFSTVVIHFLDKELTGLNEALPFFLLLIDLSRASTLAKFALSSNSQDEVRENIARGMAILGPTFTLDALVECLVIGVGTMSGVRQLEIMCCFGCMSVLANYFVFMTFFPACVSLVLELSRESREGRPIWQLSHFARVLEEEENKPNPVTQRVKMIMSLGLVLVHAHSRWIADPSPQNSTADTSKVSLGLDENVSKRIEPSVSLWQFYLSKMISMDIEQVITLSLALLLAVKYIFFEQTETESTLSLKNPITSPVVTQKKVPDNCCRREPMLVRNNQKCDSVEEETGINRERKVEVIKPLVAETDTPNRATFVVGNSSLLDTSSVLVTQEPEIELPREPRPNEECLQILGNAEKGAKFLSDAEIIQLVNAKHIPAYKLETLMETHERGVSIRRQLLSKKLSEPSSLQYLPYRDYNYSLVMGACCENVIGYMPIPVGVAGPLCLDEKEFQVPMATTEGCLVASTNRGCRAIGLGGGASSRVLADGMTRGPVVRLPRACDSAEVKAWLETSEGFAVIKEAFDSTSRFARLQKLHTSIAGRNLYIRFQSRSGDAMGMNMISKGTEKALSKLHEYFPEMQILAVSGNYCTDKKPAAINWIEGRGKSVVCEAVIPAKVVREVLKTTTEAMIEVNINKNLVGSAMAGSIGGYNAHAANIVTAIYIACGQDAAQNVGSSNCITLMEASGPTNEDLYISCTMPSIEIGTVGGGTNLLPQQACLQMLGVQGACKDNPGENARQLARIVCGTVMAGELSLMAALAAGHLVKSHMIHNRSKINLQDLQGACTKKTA
Parameters: species or system Escherichia coli
Conditions: not given

Structure (SMILES)	IC50
O=C(O)c1cc(-c2ccc(F)cc2F)ccc1O [DIFLUNISAL]	Not Active
C[S+](C)[O-] [DIMETHYL SULFOXIDE]	Not Active
CC1=NN(c2ccccc2)C(=O)C1 [EDARAVONE]	Not Active
CC(C)C[C@H]1C(=O)N2CCC[C@H]2[C@]2(O)O[C@](NC(=O)[C@@H]3C=C4c5cccc6[nH]cc(c56)C[C@H]4N(C)C3)(C(C)C)C(=O)N12 [ERGOCRYPTINE]	Not Active
C[C@]12CC[C@@H]3c4ccc(O)cc4CC[C@H]3[C@@H]1C[C@@H](O)[C@@H]2O [ESTRIOL]	Not Active

Test system: not listed separately
Test: DRUGMATRIX: Tumor Necrosis Factor (TNF), Non-Selective radioligand binding (ligand: [125I] TNF-alpha)
Type: cell membranes, Membrane
Conditions: u-937; Not Active = under 50% inhibition at 10 µM

Structure (SMILES)	IC50	Ki
O=C(O)c1cc(-c2ccc(F)cc2F)ccc1O [DIFLUNISAL]	Not Active	Not Active
C[S+](C)[O-] [DIMETHYL SULFOXIDE]	Not Active	Not Active
CC1=NN(c2ccccc2)C(=O)C1 [EDARAVONE]	Not Active	Not Active
CC(C)C[C@H]1C(=O)N2CCC[C@H]2[C@]2(O)O[C@](NC(=O)[C@@H]3C=C4c5cccc6[nH]cc(c56)C[C@H]4N(C)C3)(C(C)C)C(=O)N12 [ERGOCRYPTINE]	Not Active	Not Active
C[C@]12CC[C@@H]3c4ccc(O)cc4CC[C@H]3[C@@H]1C[C@@H](O)[C@@H]2O [ESTRIOL]	Not Active	Not Active

Target: T3, Caspase-1 (Homo sapiens, UniProt P29466)
T3 sequence (P29466 whole entry): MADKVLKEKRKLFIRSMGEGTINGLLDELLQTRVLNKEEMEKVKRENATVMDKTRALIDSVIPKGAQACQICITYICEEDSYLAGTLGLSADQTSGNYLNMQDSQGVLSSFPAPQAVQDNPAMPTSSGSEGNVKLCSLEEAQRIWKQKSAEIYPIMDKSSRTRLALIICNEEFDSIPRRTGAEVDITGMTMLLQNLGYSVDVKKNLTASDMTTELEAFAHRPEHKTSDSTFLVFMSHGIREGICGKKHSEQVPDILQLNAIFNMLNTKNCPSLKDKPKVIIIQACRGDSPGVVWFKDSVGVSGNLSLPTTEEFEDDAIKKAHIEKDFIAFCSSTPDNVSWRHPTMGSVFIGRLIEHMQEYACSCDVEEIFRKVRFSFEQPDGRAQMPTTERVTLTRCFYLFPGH
Parameters: species or system Escherichia coli
Conditions: not given

Structure (SMILES)	IC50
O=C(O)c1cc(-c2ccc(F)cc2F)ccc1O [DIFLUNISAL]	Not Active
C[S+](C)[O-] [DIMETHYL SULFOXIDE]	Not Active
CC1=NN(c2ccccc2)C(=O)C1 [EDARAVONE]	Not Active
CC(C)C[C@H]1C(=O)N2CCC[C@H]2[C@]2(O)O[C@](NC(=O)[C@@H]3C=C4c5cccc6[nH]cc(c56)C[C@H]4N(C)C3)(C(C)C)C(=O)N12 [ERGOCRYPTINE]	Not Active
C[C@]12CC[C@@H]3c4ccc(O)cc4CC[C@H]3[C@@H]1C[C@@H](O)[C@@H]2O [ESTRIOL]	Not Active
